According to US11420950B2, “Heterocyclicalkyl derivative compounds as selective histone deacetylase inhibitors and pharmaceutical compositions comprising the same” (Chong Kun Dang Pharmaceutical Corp., priority 2015, dated 2022):

Columns and labels:
[1] = system: adjuvant-induced arthritis models; test: Adjuvant-induced arthritis model, clinical score; assay type: in vivo; details: Lewis rat, vehicle 9-11
Experimental: […] of complete Freund's adjuvant (Chondrex) was injected intradermally into the tail of each Lewis rat to induce animal models. From one day before induction, the rats were divided into groups based on body weight, and the test compound was administered orally to the rats at various doses once a day, followed by evaluation.
Clinical score and body weight were measured twice a week from the day of first administration of the test compound. The clinical score was recorded as 0-4 points, and the total clinical score was evaluated after observing the foot of each rat (0: normal; and 16: the most severe edema).
The medicinal effect of the test compound in the arthritis models was evaluated based on the degree of joint edema, and a higher clinical score indicates a more severe degree of edema.

HDAC1 = molecular target: T1, HDAC1 (Homo sapiens, UniProt Q13547); test: HDAC1 enzyme inhibition, HDAC1 fluorimetric drug discovery assay kit; assay type: biochemical; details: 100-10000 nM tested, 37° C. 60 minutes, fluorescence; read-out: HDAC1 (μM), ability to inhibit the activity of HDAC enzyme
T1 construct: purchased Enzolifesciences BML-AK511
T1 sequence (Q13547 whole entry): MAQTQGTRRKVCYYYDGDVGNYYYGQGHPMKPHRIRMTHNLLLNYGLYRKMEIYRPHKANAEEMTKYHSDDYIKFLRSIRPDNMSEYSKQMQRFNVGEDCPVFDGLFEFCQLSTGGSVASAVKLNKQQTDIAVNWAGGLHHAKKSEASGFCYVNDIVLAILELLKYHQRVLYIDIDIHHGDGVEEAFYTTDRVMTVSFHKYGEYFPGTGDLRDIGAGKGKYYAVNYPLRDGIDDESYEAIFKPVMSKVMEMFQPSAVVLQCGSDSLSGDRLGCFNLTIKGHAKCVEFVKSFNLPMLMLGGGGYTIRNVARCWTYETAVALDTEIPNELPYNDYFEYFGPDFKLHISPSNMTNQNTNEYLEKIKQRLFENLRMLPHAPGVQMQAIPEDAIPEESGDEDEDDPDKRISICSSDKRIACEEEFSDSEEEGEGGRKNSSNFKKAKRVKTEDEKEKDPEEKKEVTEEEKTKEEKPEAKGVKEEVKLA
Experimental: (§1) Using a HDAC1 fluorimetric drug discovery assay kit (Enzolifesciences: BML-AK511) and a HDAC6 human recombinant (Calbiochem: 382180), the HDAC enzyme inhibitory abilities of test compounds were measured. It was treated with 100, 1000 and 10000 nM concentrations for HDAC1 assay, and 0.1, 1, 10, 100 and 1000 nM concentrations for HDAC6 assay. It was allowed to react at 37° C. for 60 minutes, and then was treated with a developer and allowed to react at 37° C. for 30 minutes, after which the fluorescence intensity (Ex 390 nm; Em 460 nm) was measured using FlexStatin3 (Molecular Device).

HDAC6 human recombinant = molecular target: T2, HDAC6 human recombinant (Homo sapiens, UniProt Q9UBN7); test: HDAC6 enzyme inhibition, fluorimetric assay; assay type: biochemical; details: for IC50: 0.1-1000 nM tested, 37° C. 60 minutes, fluorescence, read-out: HDAC6 (μM), ability to inhibit the activity of HDAC enzyme; for selectivity for HDAC1/6 enzymes (HDAC1/HDAC6): ratio of HDAC1 to HDAC6 values
T2 construct: purchased Calbiochem 382180
T2 sequence (Q9UBN7 1-1215): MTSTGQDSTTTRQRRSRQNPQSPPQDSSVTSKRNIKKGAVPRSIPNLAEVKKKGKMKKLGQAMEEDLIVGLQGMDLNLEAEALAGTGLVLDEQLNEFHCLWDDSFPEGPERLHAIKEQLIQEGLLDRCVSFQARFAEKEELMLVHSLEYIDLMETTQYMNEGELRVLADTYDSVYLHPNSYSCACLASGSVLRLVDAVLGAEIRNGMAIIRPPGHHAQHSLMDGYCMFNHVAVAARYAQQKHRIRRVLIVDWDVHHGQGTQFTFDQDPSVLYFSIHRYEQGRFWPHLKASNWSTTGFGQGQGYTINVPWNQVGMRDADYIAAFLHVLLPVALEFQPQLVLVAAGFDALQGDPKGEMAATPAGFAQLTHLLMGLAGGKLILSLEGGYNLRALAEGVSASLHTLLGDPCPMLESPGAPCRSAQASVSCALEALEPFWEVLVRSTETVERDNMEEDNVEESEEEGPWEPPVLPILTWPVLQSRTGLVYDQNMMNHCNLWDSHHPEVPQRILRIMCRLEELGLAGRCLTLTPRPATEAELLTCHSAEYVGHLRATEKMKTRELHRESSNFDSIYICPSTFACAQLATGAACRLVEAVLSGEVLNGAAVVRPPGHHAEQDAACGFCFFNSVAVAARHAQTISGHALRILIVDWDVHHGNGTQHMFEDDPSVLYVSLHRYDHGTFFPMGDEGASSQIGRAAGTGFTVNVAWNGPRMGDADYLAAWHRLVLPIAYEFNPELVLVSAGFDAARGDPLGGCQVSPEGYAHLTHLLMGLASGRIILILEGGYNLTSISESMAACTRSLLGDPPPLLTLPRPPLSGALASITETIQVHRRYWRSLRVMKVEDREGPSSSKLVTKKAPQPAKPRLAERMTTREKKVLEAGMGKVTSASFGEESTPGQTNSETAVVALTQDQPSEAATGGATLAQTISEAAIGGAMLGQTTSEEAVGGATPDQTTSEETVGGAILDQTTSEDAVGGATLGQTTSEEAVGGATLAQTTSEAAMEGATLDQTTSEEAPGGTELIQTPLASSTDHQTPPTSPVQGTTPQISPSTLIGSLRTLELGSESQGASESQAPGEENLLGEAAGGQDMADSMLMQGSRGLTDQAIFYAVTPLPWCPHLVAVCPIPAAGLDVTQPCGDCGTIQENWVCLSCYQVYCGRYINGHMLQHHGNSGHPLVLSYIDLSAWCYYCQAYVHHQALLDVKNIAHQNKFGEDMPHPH
Experimental: as §1

Compound: O=C(CCCCCCNC(=O)N1CCN(C(c2ccccc2)c2ccccc2)CC1)NO [Compound 1102, 4-benzhydryl-N-(7-(hydroxyamino)-7-oxoheptyl)piperazine-1-carboxamide]
- clinical score (joint edema, 0: normal; 16: the most severe edema) ([1]; 1 mg/kg orally once a day): 6-8
- clinical score (joint edema, 0: normal; 16: the most severe edema) ([1]; 10 mg/kg orally once a day): 4-6
- clinical score (joint edema, 0: normal; 16: the most severe edema) ([1]; 50 mg/kg orally once a day): 1-3
- IC50 (HDAC1): 3.84 µM
- IC50 (HDAC6 human recombinant): 0.004 µM
- selectivity for HDAC1/6 enzymes (HDAC1/HDAC6) (HDAC6 human recombinant): 960 fold

Compound: O=C(CCCCCCNC(=O)N1CCC(C(O)(c2ccccc2)c2ccccc2)CC1)NO [Compound 1124, N-(7-(hydroxyamino)-7-oxoheptyl)-4-(hydroxydiphenylmethyl)piperidine-1-carboxamide]
- IC50 (HDAC1): 4.09 µM
- IC50 (HDAC6 human recombinant): 0.024 µM
- selectivity for HDAC1/6 enzymes (HDAC1/HDAC6) (HDAC6 human recombinant): 170 fold

Compound: C[C@@H]1CN(C(c2ccccc2)c2ccccc2)C[C@H](C)N1C(=O)NCCCCCCC(=O)NO [Compound 1188, (2S,6R)-4-benzhydryl-N-(7-(hydroxyamino)-7-oxoheptyl)-2,6-dimethylpiperazine-1-carboxyamide]
- IC50 (HDAC1): 1.68 µM
- IC50 (HDAC6 human recombinant): 0.014 µM

Compound: C[C@@H]1CN(C(c2ccccc2)c2ccccc2)CCN1C(=O)NCCCCCCC(=O)NO [Compound 1189, (R)-4-benzhydryl-N-(7-(hydroxyamino)-7-oxoheptyl)-2-methylpiperazine-1-carboxamide]
- IC50 (HDAC1): 0.84 µM
- IC50 (HDAC6 human recombinant): 0.025 µM

Compound: C[C@H]1CN(C(c2ccccc2)c2ccccc2)CCN1C(=O)NCCCCCCC(=O)NO [Compound 1190, (S)-4-benzhydryl-N-(7-(hydroxyamino)-7-oxoheptyl)-2-methylpiperazine-1-carboxamide]
- IC50 (HDAC1): 1.34 µM
- IC50 (HDAC6 human recombinant): 0.065 µM

Compound: O=C(CCCCCCNC(=O)C1CCN(C(c2ccccc2)c2ccccc2)CC1)NO [Compound 1209, 1-benzhydryl-N-(7-(hydroxyamino)-7-oxoheptyl)piperidine-4-carboxamide]
- IC50 (HDAC1): 1.16 µM
- IC50 (HDAC6 human recombinant): 0.006 µM
- selectivity for HDAC1/6 enzymes (HDAC1/HDAC6) (HDAC6 human recombinant): 193 fold

Compound: O=C(CCCCCCNS(=O)(=O)N1CCC(C(O)(c2ccccc2)c2ccccc2)CC1)NO [Compound 1210, N-hydroxy-7-((4-(hydroxydiphenylmethyl)piperidine)-1-sulfonamido)heptanamide]
- IC50 (HDAC1): 1.19 µM
- IC50 (HDAC6 human recombinant): 0.07 µM

Compound: CN(CCCCCCC(=O)NO)C(=O)N1CCN(C(c2ccccc2)c2ccccc2)CC1 [Compound 1213, 4-benzhydryl-N-(7-(hydroxyamino)-7-oxoheptyl)-N-methylpiperazine-1-carboxamide]
- IC50 (HDAC1): 0.704 µM
- IC50 (HDAC6 human recombinant): 0.044 µM

Compound: O=C(CCCCCCNC(=O)N1CCC(N(c2ccccc2)c2ccccc2)CC1)NO [Compound 1221, 4-(diphenylamino)-N-(7-(hydroxyamino)-7-oxoheptyl)piperidine-1-carboxamide]
- IC50 (HDAC1): 1.88 µM
- IC50 (HDAC6 human recombinant): 0.079 µM

Compound: O=C(CCCCCCNC(=O)N1CCN(C(c2ccccn2)c2ccccn2)CC1)NO [Compound 1222]
- IC50 (HDAC1): 0.71 µM
- IC50 (HDAC6 human recombinant): 0.085 µM

Compound: O=C(CCCCCCNC(=O)N1CCN(C(c2ccc(F)cc2)c2ccc(F)cc2)CC1)NO [Compound 1223]
- IC50 (HDAC1): 1.16 µM
- IC50 (HDAC6 human recombinant): 0.073 µM

Compound: O=C(CCCCCCNC(=O)N1CCN(C(c2ccc(Cl)cc2)c2ccc(Cl)cc2)CC1)NO [Compound 1224]
- IC50 (HDAC1): 3.96 µM
- IC50 (HDAC6 human recombinant): 0.087 µM

Compound: O=C(CCCCCCCNC(=O)N1CCN(C(c2ccccc2)c2ccccc2)CC1)NO [Compound 1240, 4-benzhydryl-N-(8-(hydroxyamino)-8-oxoethyl)piperazine-1-carboxamide]
- IC50 (HDAC1): 0.41 µM
- IC50 (HDAC6 human recombinant): 0.07 µM

Compound: CC(c1ccccc1)N1CCN(C(=O)NCCCCCCC(=O)NO)CC1 (stereo not drawn) [Compound 1241, N-(7-(hydroxyamino)-7-oxoheptyl)-4-(1-phenylethyl)piperazine-1-carboxamide]
- IC50 (HDAC1): 0.72 µM
- IC50 (HDAC6 human recombinant): 0.025 µM

Compound: CC(c1ccccc1)N1CCC(C(=O)NCCCCCCC(=O)NO)CC1 (stereo not drawn) [Compound 1243, N-(7-(hydroxyamino)-7-oxoheptyl)-1-(1-phenylethyl)piperidine-4-carboxamide]
- IC50 (HDAC1): 0.54 µM
- IC50 (HDAC6 human recombinant): 0.017 µM

Compound: CN(CCCCCCC(=O)NO)C(=O)C1CCN(C(c2ccccc2)c2ccccc2)CC1 [Compound 1256, 1-benzhydryl-N-(7-(hydroxyamino)-7-oxoheptyl)-N-methylpiperidine-4-carboxamide]
- IC50 (HDAC1): 0.08 µM
- IC50 (HDAC6 human recombinant): 0.038 µM

Compound: O=C(CCCCCNC(=O)N1CCN(C(c2ccccc2)c2ccccc2)CC1)NO [Compound 1257, 4-benzhydryl-N-(6-(hydroxyamino)-6-oxohexyl)piperazine-1-carboxamide]
- IC50 (HDAC1): 0.159 µM
- IC50 (HDAC6 human recombinant): 0.063 µM

Compound: O=C(CCCCCNC(=O)C1CCN(C(c2ccccc2)c2ccccc2)CC1)NO [Compound 1316, 1-benzhydryl-N-(6-(hydroxyamino)-6-oxohexyl)piperidine-4-carboxamide]
- IC50 (HDAC1): 0.236 µM
- IC50 (HDAC6 human recombinant): 0.456 µM

Compound: O=C(CCCCCCCNC(=O)C1CCN(C(c2ccccc2)c2ccccc2)CC1)NO [Compound 1317]
- IC50 (HDAC1): 0.023 µM
- IC50 (HDAC6 human recombinant): 0.336 µM

Compound: O=C(CCCCCCNC(=O)N1CCN(C(c2ccccc2F)c2ccccc2F)CC1)NO [Compound 1647, 4-(bis(2-fluorophenyl)methyl)-N-(7-(hydroxyamino)-7-oxoheptyl)piperazine-1-carboxamide]
- IC50 (HDAC1): 0.466 µM
- IC50 (HDAC6 human recombinant): 0.019 µM

Compound: O=C(CCCCCCNC(=O)N1CCN(C(c2cccc(F)c2)c2cccc(F)c2)CC1)NO [Compound 1648]
- IC50 (HDAC1): 0.729 µM
- IC50 (HDAC6 human recombinant): 0.029 µM

Compound: O=C(CCCCCCNC(=O)N1CCC(C(F)(c2ccccc2)c2ccccc2)CC1)NO [Compound 1649, 4-(fluorodiphenylmethyl)-N-(7-(hydroxyamino)-7-oxoheptyl)piperidine-1-carboxamide]
- IC50 (HDAC1): 0.463 µM
- IC50 (HDAC6 human recombinant): 0.033 µM

Compound: O=C(CCCCCCNC(=O)N1CCC(N(c2ccccc2)c2cccc(F)c2)CC1)NO [Compound 1719, 4-((3-fluorophenyl)(phenyl)amino)-N-(7-(hydroxyamino)-7-oxoheptyl)piperidine-1-carboxamide]
- IC50 (HDAC1): 1.73 µM
- IC50 (HDAC6 human recombinant): 0.116 µM

Compound: O=C(CCCCCCNC(=O)N1CCC(N(c2ccccc2)c2ccc(F)cc2)CC1)NO [Compound 1734, 4-((4-fluorophenyl)(phenyl)amino)-N-(7-(hydroxyamino)-7-oxoheptyl)piperidine-1-carboxamide]
- IC50 (HDAC1): 0.886 µM
- IC50 (HDAC6 human recombinant): 0.094 µM

Compound: O=C(CCCCCNC(=O)N1CC2(CCN(C(c3ccccc3)c3ccccc3)CC2)C1)NO [Compound 1763, 7-benzhydryl-N-(6-(hydroxyamino)-6-oxohexyl)-2,7-diazaspiro[3.5]nonane-2-carboxamide]
- IC50 (HDAC1): 0.023 µM
- IC50 (HDAC6 human recombinant): 0.201 µM

Compound: O=C(CCCCCCNC(=O)N1CC2(CCN(C(c3ccccc3)c3ccccc3)CC2)C1)NO [Compound 1764, 7-benzhydryl-N-(7-(hydroxyamino)-7-oxoheptyl)-2,7-diazaspiro[3.5]nonane-2-carboxamide]
- IC50 (HDAC1): 0.236 µM
- IC50 (HDAC6 human recombinant): 0.04 µM

Compound: N-(7-(hydroxyamino)-7-oxoheptyl)-4-(phenyl(4-(trifluoromethyl)phenyl)amino)piperidine-1-carboxamie [Compound 1726]
- IC50 (HDAC1): 3.7 µM
- IC50 (HDAC6 human recombinant): 0.228 µM
